The values below come from patent publication US20250195521A1 (Revolution Medicines, Inc., priority 2020, published 2025).

For data set [1] the following is noted: cc_pd bond; 18-membered ring; Pd(dppf)Cl2/K3PO4; toluene/dioxane/H2O; […]; 70.0 °C.
Data set [2] has as its target KRAS G13D binding to BRAF RBD (Homo sapiens (Human), UniProt P01116+P62937, G13D). Kind of data set: Ras-Raf disruption/FRET/MOA assay, KRAS G13D. In kind it is biochemical. An excerpt: (§1) Note—The following protocol describes a procedure for monitoring disruption of K-Ras G12C(GMP-PNP) binding to BRAF^RBD by a compound of the invention. This protocol may also be executed substituting other Ras proteins or nucleotides.
(§2) The purpose of this biochemical assay was to measure the ability of test compounds to facilitate ternary complex formation between a nucleotide-loaded K-Ras isoform and Cyclophilin A; the resulting ternary complex disrupts binding to a BRAF^RBD construct, inhibiting K-Ras signaling through a RAF effector. Data is reported as IC50 values.
(§3) Compound was present in plate wells as a 10-point 3-fold dilution series starting at a final concentration of 30 μM. After incubation at 25° C. for 3 hours, a mixture of Anti-His Eu—W1024 and anti-GST allophycocyanin was then added to assay sample wells at final concentrations of 10 nM and 50 nM, respectively, and the reaction incubated for an additional 1.5 hours. […] Compounds that facilitate disruption of a K-Ras: RAF complex were identified as those eliciting a decrease in the TR-FRET ratio relative to DMSO control wells.

The target in data set [3] is NRAS G12C binding to BRAF RBD (Homo sapiens (Human), UniProt P01111+P62937, G12C). Kind of data set: Ras-Raf disruption/FRET/MOA assay, NRAS G12C. In kind it is biochemical.
Text: as §1, §2, §3

Data set [4] has as its system NCI-H358 (K-Ras G12C). Kind of data set: CellTiter-Glo cell viability assay, NCI-H358. The class given is cell-based, human. Conditions: Homo sapiens, NCI-H358, 120 h, 5-day treatment; read-out: H358 Cell Viability assay data (K-Ras G12C, IC50). The procedure, abridged: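 Cells seeded, compound added directly to plates; day 5: plates to RT ~30 min, CellTiter-Glo luminescence; (sample/avg DMSO)*100; 4-parameter fit.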

The target in data set [5] is K-Ras G12C(GMP-PNP) binding to BRAF RBD (Homo sapiens (Human), UniProt P01116+P62937, G12C). Kind of data set: Disruption of BRAF RBD interaction with K-Ras (FRET / MOA assay), K-Ras G12C. The class given is biochemical. Conditions: read-out: KRAS G12C FRET IC50. The method, boiled down:
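Incubation of compound (up to 30 μM final, 3-fold steps) with GMP-PNP-type loaded Ras isoform, cyclophilin A and BRAF RBD ran 3 h at 25° C, followed by 1.5 h with detection antibodies. Disruption appears as a reduced TR-FRET ratio compared with DMSO controls, expressed as IC50.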

Data set [6] has as its target KRAS WT binding to BRAF RBD (Homo sapiens (Human), UniProt P01116+P62937). Kind of data set: Ras-Raf disruption/FRET/MOA assay, KRAS WT. The class given is biochemical.
Text: Disruption of B-Raf Ras-binding Domain (BRAF^RBD) Interaction with K-Ras by Compounds of the Invention (also called a FRET assay or an MOA assay)
as §1, §2
as §3, with “In assay buffer containing 25 mM HEPES pH 7.3, 0.002% Tween20, 0.1% BSA, 100 mM NaCl and 5 mM MgCl2, tagless Cyclophilin A, His6-K-Ras-GMPPNP, and GST-BRAF^RBD were combined in a 384-well assay plate at final concentrations of 25 μM, 12.5 nM and 50 nM, respectively. Compound was” for “Compound was”

Data set [7] has as its target KRAS G12S binding to BRAF RBD (Homo sapiens (Human), UniProt P01116+P62937, G12S). Kind of data set: Ras-Raf disruption/FRET/MOA assay, KRAS G12S. In kind it is biochemical.
Text: as §1, §2, §3

Data set [8] deals with K-Ras G12C (NCI-H358 cells). Kind of data set: Potency assay: pERK in NCI-H358 cells. In kind it is cell-based, human. Conditions: Homo sapiens; NCI-H358 cells, 4 hours; read-out: pERK EC50 (H358 KRAS G12C). The procedure, abridged: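 Cells plated the day before were exposed for 4 h at 37° C, 5% CO2 to a 10-point, 3-fold DMSO dilution series (10 mM top stock), in duplicate. Phospho-ERK was read by AlphaLISA SureFire Ultra or by In-Cell Western with DRAQ5 DNA stain, and IC50 came from a 4-parameter sigmoidal fit.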

The subject of data set [9] is Capan-1 cells (K-Ras G12V). Kind of data set: CellTiter-Glo cell viability, Capan-1. Conditions: Homo sapiens, CAPAN-1, 120 h, K-Ras G12V, 5-day treatment; read-out: Capan-1 Cell Viability IC50. In kind it is cell-based, human. The procedure, abridged: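 Cells seeded, compound dispensed straight into wells, 5-day exposure. Plates brought to room temperature ~30 min, CellTiter-Glo luminescence measured. Normalized to DMSO (%), 4-parameter logistic fit.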
A general note: In ATP-based viability assays light output follows the ATP content of the culture.

For orientation: IC50 means the midpoint of a concentration-inhibition curve. A word on the EC50: it is the concentration needed to bring the measured effect to its halfway point.

NRAS G12C binding to BRAF RBD, sequence (P01111 whole entry G12C): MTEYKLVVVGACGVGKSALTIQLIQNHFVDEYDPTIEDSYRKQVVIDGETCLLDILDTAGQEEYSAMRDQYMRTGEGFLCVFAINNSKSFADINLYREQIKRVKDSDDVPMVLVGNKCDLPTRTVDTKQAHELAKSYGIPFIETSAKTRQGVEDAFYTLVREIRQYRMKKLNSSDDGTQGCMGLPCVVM
NRAS G12C binding to BRAF RBD, sequence (P62937 whole entry): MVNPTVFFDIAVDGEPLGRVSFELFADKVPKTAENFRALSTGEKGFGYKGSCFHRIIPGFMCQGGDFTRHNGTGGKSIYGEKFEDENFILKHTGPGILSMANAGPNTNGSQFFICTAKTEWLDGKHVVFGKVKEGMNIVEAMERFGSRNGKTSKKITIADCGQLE
KRAS G12S binding to BRAF RBD, sequence (P01116 other isoform, or with tags, fused parts or gaps G12S): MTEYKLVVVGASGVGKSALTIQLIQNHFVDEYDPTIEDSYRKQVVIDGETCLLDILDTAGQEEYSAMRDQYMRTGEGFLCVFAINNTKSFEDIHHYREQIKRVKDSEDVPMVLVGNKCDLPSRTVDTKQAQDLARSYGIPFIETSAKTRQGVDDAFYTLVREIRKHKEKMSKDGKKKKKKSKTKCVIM
KRAS G12S binding to BRAF RBD, sequence (P62937 whole entry): as the sequence (P62937 whole entry) above
KRAS WT binding to BRAF RBD, sequence (P01116 other isoform, or with tags, fused parts or gaps): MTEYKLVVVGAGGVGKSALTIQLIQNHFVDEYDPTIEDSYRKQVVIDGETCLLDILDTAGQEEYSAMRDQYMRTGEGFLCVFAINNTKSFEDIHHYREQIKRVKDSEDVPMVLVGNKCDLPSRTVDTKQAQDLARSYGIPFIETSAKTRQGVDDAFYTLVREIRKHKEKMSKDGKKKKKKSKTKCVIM
KRAS WT binding to BRAF RBD, sequence (P62937 whole entry, the tested form may be a part): as the sequence (P62937 whole entry) above
KRAS G13D binding to BRAF RBD, sequence (P01116 other isoform, or with tags, fused parts or gaps G13D): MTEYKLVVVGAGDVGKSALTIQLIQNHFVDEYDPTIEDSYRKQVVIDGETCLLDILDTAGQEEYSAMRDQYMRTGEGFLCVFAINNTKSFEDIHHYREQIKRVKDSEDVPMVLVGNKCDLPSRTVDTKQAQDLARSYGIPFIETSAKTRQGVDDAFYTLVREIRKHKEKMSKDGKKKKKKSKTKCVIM
KRAS G13D binding to BRAF RBD, sequence (P62937 whole entry, canonical isoform): as the sequence (P62937 whole entry) above
K-Ras G12C(GMP-PNP) binding to BRAF RBD, sequence (P01116 other isoform, or with tags, fused parts or gaps G12C): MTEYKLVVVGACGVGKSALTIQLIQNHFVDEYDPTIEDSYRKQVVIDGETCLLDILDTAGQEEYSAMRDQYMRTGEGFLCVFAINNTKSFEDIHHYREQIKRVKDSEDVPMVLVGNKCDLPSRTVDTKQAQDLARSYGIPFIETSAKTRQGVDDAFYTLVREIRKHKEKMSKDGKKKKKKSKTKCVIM
K-Ras G12C(GMP-PNP) binding to BRAF RBD, sequence (P62937 whole entry, canonical isoform): as the sequence (P62937 whole entry) above

In [1], “tert-butyl ((2^2R,6^3S,4S)-1^1-ethyl-1^2-(2-((S)-1-methoxyethyl) pyridin-3-yl)-22-(methoxymethyl)-10,10-dimethyl-5,7-dioxo-2^1,2^2,2^3,2^6,6^1,6^2,6^3,6^4,6^5,6^6-decahydro-1^1H-8-oxa-1 (5,3)-indola-6 (1,3)-pyridazina-2 (5,1)-pyridinacycloundecaphane-4-yl) carbamate” gave a ring closure, isolated yield of 30%.
Take `CCn1c(-c2cccnc2[C@H](C)OC)c2c3cc(ccc31)-c1cccc(c1)C[C@H](NC(=O)[C@H](C(C)C)N(C)C(=O)[C@H]1CCN(C(=O)C#C[C@@H]3CC(F)(F)CN3C)C1)C(=O)N1CCC[C@H](N1)C(=O)OCC(C)(C)C2` [Compound A526]: the IC50 in data set [2] was greater than 10 µM; in [3], 0.01 to 0.1 µM; in [4] it was less than 0.01 µM; in [5], 0.01 to 0.1 µM.
On to `CCn1c(-c2cccnc2[C@H](C)OC)c2c3cc(ccc31)-c1csc(n1)C[C@H](NC(=O)[C@H](C(C)C)N(C)C(=O)N1CC(C#N)C1)C(=O)N1CCC[C@H](N1)C(=O)OCC(C)(C)C2` [Compound A382], for which the IC50 in data set [4] was less than 0.01 µM; in data set [6], 0.01 to 0.1 µM; in data set [7], 0.01 to 0.1 µM.
Regarding `C/C=C/S(=O)(=O)N1CC[C@H](C(=O)N(C)[C@H](C(=O)N[C@H]2Cc3cc(O)cc(c3)-c3ccc4c(c3)c(c(-c3ccncc3[C@H](C)OC)n4CC)CC(C)(C)COC(=O)[C@@H]3CCCN(N3)C2=O)C(C)C)C1` [Compound A280], the IC50 in data set [2] was in the range of 0.1 to 1 µM; in data set [3] it was 0.1 to 1 µM; in [4], 0.01 to 0.1 µM; in data set [6], 0.01 to 0.1 µM; in data set [5], 0.01 to 0.1 µM. The EC50 in data set [8] was less than 5 µM.
With `C=CC(=O)N1CC[C@H](C(=O)N(C)[C@H](C(=O)N[C@H]2Cc3csc(n3)-c3ccc4c(c3)c(c(-c3cc(N5CCN(C)CC5)cnc3[C@H](C)OC)n4CC(C)(F)F)CC(C)(C)COC(=O)[C@@H]3CCCN(N3)C2=O)C(C)C)C1` [Compound A410], the IC50 in [2] was 0.1 to 1 µM; in data set [3], 0.01 to 0.1 µM; in [4] it was less than 0.01 µM; in [5] it was 0.01 to 0.1 µM. Further, the EC50 in data set [8] was less than 5 µM.
Consider `CCn1c(-c2cnccc2COC)c2c3cc(ccc31)-c1cc(O)cc(c1)C[C@H](NC(=O)[C@H](C(C)C)N(C)C(=O)O[C@H]1CCOC1)C(=O)N1CCC[C@H](N1)C(=O)OCC(C)(C)C2` [Compound A260], for which the IC50 in [4] was less than 0.01 µM; in data set [6] it was 0.01 to 0.1 µM; in data set [7], 0.01 to 0.1 µM; in [9], 1 to 10 µM; in data set [5], 0.01 to 0.1 µM.
Consider `C=CC(=O)N1CC[C@H](C(=O)N(C)[C@H](C(=O)N[C@H]2Cc3cc(O)cc(c3)-c3ccc4c(c3)c(c(-c3cccnc3COC)n4CC)CC(C)(C)COC(=O)[C@@H]3CCCN(N3)C2=O)C(C)C)C1` [Compound A137], for which the IC50 in data set [2] was greater than 10 µM; in [3] it was 0.1 to 1 µM; in [4] it was greater than 10 µM.
For the compound `CC#CC(=O)N1CC[C@H](C(=O)N(C)[C@H](C(=O)N[C@H]2Cc3cc(O)cc(c3)-c3ccc4c(c3)c(c(-c3cncnc3)n4CC)CC(C)(C)COC(=O)[C@@H]3CCCN(N3)C2=O)C(C)C)C1` [Compound A169], the IC50 is greater than 10 µM in data set [2], 0.1 to 1 µM in [3], 0.1 to 1 µM in data set [4] and 0.1 to 1 µM in data set [5].
Take `CCn1c(-c2cc(N3CCN(C)CC3)cnc2[C@H](C)OC)c2c3cc(ccc31)-c1cc(O)cc(c1)C[C@H](NC(=O)[C@H](C(C)C)N(C)C(=O)[C@@H]1OCC[C@@H]1c1ccccc1)C(=O)N1CCC[C@H](N1)C(=O)OCC(C)(C)C2` [Compound A594]: the EC50 in [8] was less than 5 µM. In addition, the IC50 in [4] is less than 0.01 µM; in data set [6], 0.01 to 0.1 µM; in [5] it was 0.01 to 0.1 µM.
Turning to `C=CC(=O)N1CC[C@H](C(=O)N(C)[C@H](C(=O)NC2C[C@@H]3CN(CCO3)c3ccc4c(c3)c(c(-c3cccnc3COC)n4CC)CC(C)(C)COC(=O)[C@@H]3CCCN(N3)C2=O)C(C)C)C1` (stereo partly shown) [Compound A318], the IC50 in data set [2], in data set [3], in data set [4] and in data set [5] was greater than 10 µM throughout.
Turning to `C=CC(=O)N1CC[C@H](C(=O)N(C)[C@H](C(=O)N[C@H]2Cc3cc(O)cc(c3)-c3ccc4c(c3)c(c(-c3cccc(CN(C)C)c3)n4CC)CC(C)(C)COC(=O)[C@@H]3CCCN(N3)C2=O)C(C)C)C1` [Compound A106], the results for the IC50 in data set [2], in data set [3] and in data set [4] were greater than 10 µM, 1 to 10 µM and 0.1 to 1 µM, respectively.
Consider `CCn1c(-c2cccnc2[C@H](C)OC)c2c3cc(ccc31)-c1cc(C(F)F)cc(n1)C[C@H](NC(=O)[C@H](C1CCCC1)N(C)C(=O)[C@H]1CCN(C(=O)C#CC(C)(C)N3CCC3)C1)C(=O)N1CCC[C@H](N1)C(=O)OCC(C)(C)C2` [Compound A456], for which the IC50 was 1 to 10 µM in data set [2], 0.01 to 0.1 µM in data set [3], less than 0.01 µM in data set [4] and 0.01 to 0.1 µM in data set [5].
`CC#CC(=O)N1CC[C@]2(CCC([C@H](C(=O)N[C@H]3Cc4nc(cs4)-c4ccc5c(c4)c(c(-c4cccnc4[C@H](C)OC)n5CC)CC(C)(C)COC(=O)[C@@H]4CCCN(N4)C3=O)C(C)C)C2=O)C1` (stereo partly shown) [Compound A511]: the IC50 in data set [2] was 1 to 10 µM; in [3], 0.1 to 1 µM; in [4], less than 0.01 µM; in data set [5] it was 0.1 to 1 µM.
As to `CCn1c(-c2cccnc2[C@H](C)OC)c2c3cc(ccc31)-c1cccc(c1)C[C@H](NC(=O)[C@H](C(C)C)N(C)C(=O)[C@H]1CCN(C(=O)C#CC3CCO3)C1)C(=O)N1CC(Br)C[C@H](N1)C(=O)OCC(C)(C)C2` (stereo partly shown) [Compound A508], the IC50 in [2] was greater than 10 µM; in data set [3] it was 0.1 to 1 µM.
Consider `CCn1c(-c2cc(C3CCN(C)CC3)cnc2[C@H](C)OC)c2c3cc(ccc31)-c1cc(O)cc(c1)C[C@H](NC(=O)[C@H](C(C)C)N(C)C(=O)[C@@H]1OCC[C@@H]1c1ccccc1)C(=O)N1CCC[C@H](N1)C(=O)OCC(C)(C)C2` [Compound A577], for which the EC50 in data set [8] is less than 5 µM. For the same compound, the IC50 in data set [4] is less than 0.01 µM; in data set [7], 0.01 to 0.1 µM.
With `C=CC(=O)N1CC[C@H](C(=O)N(C)[C@H](C(=O)N[C@H]2Cc3cccc(c3)-c3ccc4c(c3)c(c(-c3cccnc3[C@H](C)OC)n4CC)CC(C)(C)COC(=O)[C@@H]3CCCN(N3)C2=O)C(C)C)C1` [Compound A114], the IC50 in data set [2], in data set [3] and in [5] was greater than 10 µM each time.
